The values below come from publication PMC5388737, “Exploring the Role of CYP3A4 Mediated Drug Metabolism in the Pharmacological Modulation of Nitric Oxide Production” (Frontiers in Pharmacology, 2017).

Series [1] has as its system NO production in LPS stimulated RAW 264.7 macrophages. Kind of series: NO production in LPS stimulated RAW 264.7 murine macrophages (Griess assay). Type of series: cell-based, mouse. The following applies: for IC50: Mus musculus, RAW264.7. As to the method:
The mouse macrophage cells, RAW264.7 (ATCC® TIB-71™) were obtained from ATCC and cultured in Dulbecco's Modified Eagle Medium (DMEM), supplemented with 10% FBS and 2 mM l-glutamine, in a humidified 5% CO2 atmosphere at 37°C. All cell handling steps were carried out using the SelecT automated cell culture system. RAW264.7 cells were seeded into 96-well plates at a density of 20 × 10^3 cells per well and grown to approximately 50% of confluence (24 h). They were cultured for another 24 h with each of the test compounds described above (5 μL of stock serial dilutions in 20% DMSO were dispensed into 190 μL of fresh medium using Perkin Elmer Evolution P3, Waltham, MA,). Afterwards, these cells were stimulated with LPS (5 μL of 6 μg/mL were dispensed using a Thermo Scientific Multidrop Combi dispenser, MTX Lab Systems, Vienna, VA). Untreated (5 μL of 20% DMSO, compound vehicle) and unstimulated (5 μL of purified water, LPS vehicle) cells were used as negative controls (n = 4) while untreated but stimulated cells were used as positive controls (n = 4) in each assay plate.
Test compound activities were calculated automatically using the Genedata Screener software (Genedata AG, Basel, Switzerland), and the percentage inhibition of each commercial compound was determined by Equation (1), integrated in the Genedata Screener software. Percentage of control of production of nitric oxide was: (1) Percentage of control = (Abswell − Absneg/Abspos − Absneg) ∗ 100 where Abswell is the absorbance measured per specific well; and Abspos and Absneg are the average absorbance measured for the positive (LPS/solvent vehicle) and negative controls (-LPS/solvent vehicle, respectively). […] Dexamethasone was used as positive control standard. All compounds were tested in triplicate (n = 3) in two different days.
(Nitrite, measured by Griess reagent, commonly stands in for NO production.)

Series [2] is described as follows: In vitro metabolic stability in human liver microsomes. The class given is in vitro ADME. To be noted: HLM 1 mg/mL, 1 μM substrate, NADPH, read-out: Met. stability T1/2. As to the method: Protein concentration was 1 mg/mL and NADPH was present at 4 mM. Reaction was quenched using an equal volume of AcN and then diluted 1:1 with water prior to analysis by liquid chromatography coupled to high resolution mass spectrometry (LC-HRMS): Chromatography. The incubations were analyzed using an Agilent Series 1290 LC system (Agilent Technologies, Santa Clara, CA, USA). […] Solvent A contained water with 0.1% formic acid and solvent B contained AcN with 0.1% formic acid, and the flow rate was set at 400 μL/min. The gradient elution was performed as follows: 0-0.5 min 0% eluent B; 0.5-7 min 100% eluent B; 7-9 min 100% eluent B; 9-9.2 min 0% eluent B; and 9.2-10.5 min 0% eluent B. High resolution mass spectrometry: AB SCIEX TripleTOF 5600 quadrupole-time-of-flight mass spectrometer (Q-TOF-MS) in positive ESI mode (AB SCIEX, Concord, ON, Canada) was used with a generic method for data acquisition on all compounds and samples. The method consisted of a time of flight mass survey scan (TOF MS), followed by two information-dependent acquisitions (IDA) TOF MS/MS scans. […] An accumulation time of 100 ms was used for each scan. Mass defect triggered IDA was used for the MS/MS scans (collision energy of 35 eV with a spread of ±10 eV). External mass calibration was performed automatically using a calibrant delivery system. Data processing was performed using MultiQuant Software and MetabolitePilot Software (AB SCIEX, Concord, ON, Canada) to process the TOF MS data and generate all quantitative information. An extracted ion current (XIC) window of ±10 mDa was used for all compounds. Peak areas were used to plot the Ln % remaining relative to t = 0.
A general note: Liver microsomes are vesicles of endoplasmic reticulum, rich in cytochrome P450 enzymes.

Series [3] can be described thus: Turbidimetric kinetic aqueous solubility (NIVA-CYPI-KS). Type of series: physicochemical. The following applies: potassium phosphate buffer, 37 °C, pH 7.4, aqueous buffer, kinetic from dmso stock, potassium phosphate buffer pH 7.4, 2 h, turbidimetry 620 nm. Here is the method:
(§1) Serial dilutions of test compounds in 100% DMSO were carried out on a Biomek FX workstation coupled with a stacker carrousel (Beckman Coulter Inc. Brea, California). […] Compounds for NO production assessment were also prepared from serial dilutions in 100% DMSO (20 μL) which were combined with water (80 μL).
(§2) Briefly, CYP3A4 inhibition studies were conducted using human recombinant c-DNA expressed CYP3A4 enzymes by quantification of non-fluorescent substrate, 7-benzyloxy-4-(trifluoromethyl) coumarin (BFC) transformation to a fluorescent product (7-HFC), which is mediated by CYP3A4. For aqueous solubility assessment, serial dilutions of test compounds (imidazole derivatives and macrolides) dissolved in DMSO/AcN [35:65] [v/v] (2 μL) were combined with a 180 μL potassium phosphate buffer (pH 7.4) using an Evolution P3 liquid handling station. Then the plates were incubated for 2 h at 37°C to allow slow compound precipitation. Thereafter, absorbance was measured at 620 nm by an EnVision multilabel plate reader. Absorbance signals were used to determine compound solubility limits. Pyrene was used as standard control for precipitation in turbidimetric kinetic solubility determination. […] Finally, reaction product (7-HFC) formation was quantify using florescence measurements. All compounds were tested in triplicate in two different days.

The test system of series [4] is primary cultures of alveolar rat macrophages. Also on record: method as in Tamaoki et al., 1999; Kohri et al., 2000. To be noted: ref Tamaoki et al., 1999, Kohri et al., 2000; cited from earlier work.
Series [5] can be described thus: RXT metabolite profile in HLM incubations (LC-HRMS). The class given is in vitro ADME, human. The following applies: RXT incubation with HLM; peak area of [M+H]+ ion. Here is the method: Test compounds (ERY, RXT, CLT, and AZT) were incubated in HLM at an initial substrate concentration of 1 μM in a 96-well format. Standard high-throughput incubation conditions were used with time points of 0, 15, 30, 45, 60, and 90 min. Protein concentration was 1 mg/mL and NADPH was present at 4 mM. Reaction was quenched using an equal volume of AcN and then diluted 1:1 with water prior to analysis by liquid chromatography coupled to high resolution mass spectrometry (LC-HRMS): Chromatography. The incubations were analyzed using an Agilent Series 1290 LC system (Agilent Technologies, Santa Clara, CA, USA). All analyses were performed using a Supelco Discovery HS C18 (2.1 × 50 mm) 3 μm column that was held at 30°C. Solvent A contained water with 0.1% formic acid and solvent B contained AcN with 0.1% formic acid, and the flow rate was set at 400 μL/min. The gradient elution was performed as follows: 0–0.5 min 0% eluent B; 0.5–7 min 100% eluent B; 7–9 min 100% eluent B; 9–9.2 min 0% eluent B; and 9.2–10.5 min 0% eluent B. High resolution mass spectrometry: AB SCIEX TripleTOF 5600 quadrupole-time-of-flight mass spectrometer (Q-TOF-MS) in positive ESI mode (AB SCIEX, Concord, ON, Canada) was used with a generic method for data acquisition on all compounds and samples. The method consisted of a time of flight mass survey scan (TOF MS), followed by two information-dependent acquisitions (IDA) TOF MS/MS scans. The mass range was m/z 100–1,000 for both MS and MS/MS. An accumulation time of 100 ms was used for each scan. Mass defect triggered IDA was used for the MS/MS scans (collision energy of 35 eV with a spread of ±10 eV). External mass calibration was performed automatically using a calibrant delivery system. Data processing was performed using MultiQuant Software and MetabolitePilot Software (AB SCIEX, Concord, ON, Canada) to process the TOF MS data and generate all quantitative information. An extracted ion current (XIC) window of ±10 mDa was used for all compounds. […]

In series [6] the target is human recombinant c-DNA expressed CYP3A4 (Homo sapiens, UniProt P08684). Kind of series: CYP3A4 reversible inhibition (NIVA-CYPI-KS, BFC substrate). Here is the method:
as §1, §2

In another series the target is CYP3A4 (Homo sapiens, UniProt P08684). Kind of series: in vitro. The following applies: recombinant enzyme, pH 7.4. As to the method: Control samples were prepared in the absence of test compounds by the addition of solvent alone.
Sequence of CYP3A4 (P08684 whole entry): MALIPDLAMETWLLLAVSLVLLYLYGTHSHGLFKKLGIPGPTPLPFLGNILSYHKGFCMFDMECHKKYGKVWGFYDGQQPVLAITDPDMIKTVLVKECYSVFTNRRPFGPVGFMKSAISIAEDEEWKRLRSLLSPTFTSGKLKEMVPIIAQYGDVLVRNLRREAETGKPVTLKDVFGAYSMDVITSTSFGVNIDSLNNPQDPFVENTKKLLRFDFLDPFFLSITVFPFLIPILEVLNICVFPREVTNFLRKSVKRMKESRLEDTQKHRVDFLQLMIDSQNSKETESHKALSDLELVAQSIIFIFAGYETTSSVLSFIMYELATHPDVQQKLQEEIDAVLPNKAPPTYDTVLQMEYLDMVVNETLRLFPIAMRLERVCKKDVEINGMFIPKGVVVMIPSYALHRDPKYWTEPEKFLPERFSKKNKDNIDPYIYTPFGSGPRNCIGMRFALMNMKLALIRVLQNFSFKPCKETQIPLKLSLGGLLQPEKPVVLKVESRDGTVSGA
Briefly, the observed inactivation rate constant at each macrolide concentration was calculated from the initial slopes of the remaining enzyme activity, plotted semi-logarithmically against the pre-incubation time. Non-linear regression analysis of the negative slopes against inhibitor concentration enables Kinact and KI to be calculated. […] All compounds were tested in triplicate in two different days for every methodology studied. […].

Where [7] appears, read: LPS stimulated RAW 264.7, 24 h, concentrations with viability <80% rejected, read-out: NO production IC50.
[8] abbreviates: read-out: Solubility Range Lower bound.
[9] abbreviates: read-out: Solubility Range Upper bound.
[10] abbreviates: inferred from relative composition of the RXT metabolite mixture, read-out: inferred IC50 for inactivation of NO production.

Converted amounts (≈) assume the structure as drawn. Like-named read-outs stand apart in the source and are kept apart here.

Sequence of human recombinant c-DNA expressed CYP3A4 (P08684 whole entry): as above

What is called IC50 is the point on the concentration scale where inhibition reaches its midpoint. In general, solubility refers to the dissolved amount per volume that the medium holds. For the molecule `CC[C@H]1OC(=O)[C@H](C)[C@@H](O[C@H]2C[C@@](C)(OC)[C@@H](O)[C@H](C)O2)[C@H](C)[C@@H](O[C@@H]2O[C@H](C)C[C@H](N(C)C)[C@H]2O)[C@](C)(O)C[C@@H](C)CN(C)[C@H](C)[C@@H](O)[C@]1(C)O` [Azithromycin], the “NO production, percentage of control” value in series [1] (250 μM (highest noncytotoxic dose), LPS stimulated RAW 264.7) is on record as 53.82 % of control. In addition, in series [1] (setting [7]), the concentration for half-maximal inhibition (IC50) is above 250 µM. The half-life at 1 μM in series [2] is above 60 min. Further, the solubility at 2 h in series [3] (setting [8]) and in series [3] (setting [9]) was above 86 µM throughout.

As usually defined, the kinact is the rate constant of inactivation at saturating inhibitor. Turning to `CC[C@H]1OC(=O)[C@H](C)[C@@H](O[C@H]2C[C@@](C)(OC)[C@@H](O)[C@H](C)O2)[C@H](C)[C@@H](O[C@@H]2O[C@H](C)C[C@H](N(C)C)[C@H]2O)[C@](C)(O)C[C@@H](C)/C(=N\OCOCCOC)[C@H](C)[C@@H](O)[C@]1(C)O` [Roxythromycin, (E)-ERY-9-[O-[(2-methoxyethoxy)methyl]oxime]], the “IC50 in NO production” value in series [4] was 5 µg/mL (≈ 5.97 µM). Besides, the “Area (%) relative content of parent and metabolites” value (from here on “Area (%) relative content”) in series [5] amounted to 65%. The concentration for half-maximal inhibition (IC50) in series [1] (setting [7]) is above 250 µM; in series [6], 6.41 µM. Besides, the “inactivation of NO production” value in series [1] (from 0.488 to 250 μM, LPS stimulated RAW 264.7) is “no inactivation at all”. The half-life at 1 μM in series [2] is 38.1 min. Further, the solubility at 2 h in series [3] (setting [8]) and in series [3] (setting [9]) was above 86 µM in each case. The “CYP3A4 TDI KI” value on CYP3A4 came to 0.29 µM. In addition, the kinact on CYP3A4 is 0.000715 s⁻¹.

`CC[C@H]1OC(=O)[C@H](C)[C@@H](O[C@H]2C[C@@](C)(OC)[C@@H](O)[C@H](C)O2)[C@H](C)[C@@H](O[C@@H]2O[C@H](C)C[C@H](N(C)C)[C@H]2O)[C@](C)(OC)C[C@@H](C)C(=O)[C@H](C)[C@@H](O)[C@]1(C)O` [Claritromycin, clarithromycin]: in series [1] (62.5 μM (highest noncytotoxic dose), LPS stimulated RAW 264.7), the “NO production, percentage of control” value came out at 85.2%. In addition, the 50% inhibitory concentration (IC50) in series [1] (setting [7]) is above 62.5 µM. Further, the half-life at 1 μM in series [2] stood at 50.6 min. In addition, the solubility at 2 h in series [3] (setting [8]) and in series [3] (setting [9]) was above 86 µM each time. In addition, on CYP3A4, the “CYP3A4 TDI KI” value was 2.68 µM.

Regarding `C[C@@H]1C[C@H]2[C@@H]3CCC4=CC(=O)C=C[C@]4(C)[C@@]3(F)[C@@H](O)C[C@]2(C)[C@@]1(O)C(=O)CO` [Dexamethasone], the IC50 in series [1] (setting [7]) was determined as 0.00721 µM.

With `Clc1ccccc1C(c1ccccc1)(c1ccccc1)n1ccnc1` [Clotrimazole, clotrimazole], the solubility at 2 h in series [3] (setting [8]) was 2.59 µM (≈ 0.893 µg/mL); in series [3] (setting [9]), 10.3 µM (≈ 3.57 µg/mL).

In the case of `CC[C@H]1OC(=O)[C@H](C)[C@@H](O[C@H]2C[C@@](C)(OC)[C@@H](O)[C@H](C)O2)[C@H](C)[C@@H](O[C@@H]2O[C@H](C)C[C@H](N(C)C)[C@H]2O)[C@](C)(O)C[C@@H](C)C(=O)[C@H](C)[C@@H](O)[C@]1(C)O` [Erythromycin, erythromycin], the results for the IC50 in series [1] (setting [7]) and in series [6] were above 250 µM and 3.21 µM, respectively. Further, the half-life at 1 μM in series [2] is 21.7 min. The solubility at 2 h in series [3] (setting [8]) and in series [3] (setting [9]) was above 86 µM each time.

`CCC1OC(=O)C(C)C(OC2CC(C)(OC)C(O)C(C)O2)C(C)C(OC2OC(C)CC(NC)C2O)C(C)(O)CC(C)C(=NO)C(C)C(O)C1(C)O` (stereo not drawn) [M5, Demethylated ERY oxime]: the “Area (%) relative content” value in series [5] worked out at 2%. Moreover, in series [1] (setting [10]), the half-maximal inhibitory concentration (IC50) was found to be 4.74 µg/mL.

On to `CCC1OC(=O)C(C)C(OC2CC(C)(OC)C(O)C(C)O2)C(C)C(OC2OC(C)CC(N(C)C)C2O)C(C)(O)CC(C)C(=NO)C(C)C(O)C1(C)O` (stereo not drawn) [M1, ERY oxime], for which the “Area (%) relative content” value in series [5] is given as 20%. The IC50 in series [1] (setting [10]) came out at 23.1 µg/mL.

Consider `CC(=O)N1CCN(c2ccc(OCC3COC(Cn4ccnc4)(c4ccc(Cl)cc4Cl)O3)cc2)CC1` (stereo not drawn) [Ketoconazole, ketoconazole], for which the half-maximal inhibitory concentration (IC50) in series [1] (setting [7]) was above 10 µM.

In the case of `Clc1ccc(COC(Cn2ccnc2)c2ccc(Cl)cc2Cl)c(Cl)c1` (stereo not drawn) [Miconazole, miconazole], the solubility at 2 h in series [3] (setting [8]) is 8.62 µM (≈ 3.59 µg/mL); in series [3] (setting [9]), 34.5 µM (≈ 14.3 µg/mL).
